Experimental findings from patent publication US7642269B2, “Pyrrolo[3,2-B]pyridine derivatives and processes for the preparation thereof” (Yuhan Corporation, priority 2005, dated 2010) are described below.

Structures can show the parent of a compound that is named as a salt.

T1 sequence (P19156 2-1034 limits assumed): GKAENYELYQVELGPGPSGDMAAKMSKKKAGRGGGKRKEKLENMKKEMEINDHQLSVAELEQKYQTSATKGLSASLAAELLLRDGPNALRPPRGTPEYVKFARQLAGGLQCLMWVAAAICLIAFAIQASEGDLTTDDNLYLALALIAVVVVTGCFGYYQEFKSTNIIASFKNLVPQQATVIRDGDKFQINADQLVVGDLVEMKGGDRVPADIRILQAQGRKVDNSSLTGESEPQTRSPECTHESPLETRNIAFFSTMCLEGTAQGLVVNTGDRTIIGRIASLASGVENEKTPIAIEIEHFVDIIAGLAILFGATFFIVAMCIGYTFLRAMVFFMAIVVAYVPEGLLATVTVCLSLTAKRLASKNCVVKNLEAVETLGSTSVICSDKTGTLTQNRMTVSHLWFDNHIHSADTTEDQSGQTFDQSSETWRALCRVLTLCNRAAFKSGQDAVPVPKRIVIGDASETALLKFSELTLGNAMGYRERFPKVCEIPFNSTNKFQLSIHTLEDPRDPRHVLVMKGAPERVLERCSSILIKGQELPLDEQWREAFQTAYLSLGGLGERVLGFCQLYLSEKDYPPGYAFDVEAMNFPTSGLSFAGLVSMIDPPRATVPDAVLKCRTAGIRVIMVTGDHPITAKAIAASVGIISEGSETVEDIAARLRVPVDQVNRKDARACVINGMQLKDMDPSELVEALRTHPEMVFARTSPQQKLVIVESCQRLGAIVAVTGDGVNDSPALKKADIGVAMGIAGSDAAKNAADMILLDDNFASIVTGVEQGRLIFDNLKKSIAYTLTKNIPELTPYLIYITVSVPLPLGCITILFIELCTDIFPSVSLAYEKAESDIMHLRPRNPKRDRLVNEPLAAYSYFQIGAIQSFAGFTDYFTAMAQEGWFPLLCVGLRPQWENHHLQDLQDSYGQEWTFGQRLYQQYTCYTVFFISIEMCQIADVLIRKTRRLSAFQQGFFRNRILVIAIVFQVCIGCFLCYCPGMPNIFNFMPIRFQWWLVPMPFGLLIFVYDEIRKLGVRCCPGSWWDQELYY
T1 sequence (P18434 whole entry partner): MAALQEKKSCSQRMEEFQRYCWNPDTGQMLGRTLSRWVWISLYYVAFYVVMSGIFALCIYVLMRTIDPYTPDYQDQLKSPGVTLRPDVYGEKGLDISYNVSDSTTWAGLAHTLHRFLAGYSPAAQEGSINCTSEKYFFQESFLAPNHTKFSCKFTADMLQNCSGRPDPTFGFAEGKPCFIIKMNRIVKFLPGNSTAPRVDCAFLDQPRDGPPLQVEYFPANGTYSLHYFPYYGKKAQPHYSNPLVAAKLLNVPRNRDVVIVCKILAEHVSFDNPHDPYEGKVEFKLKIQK

The assay addresses T1, H^+/K^+-ATPase (Sus scrofa, UniProt P19156).
T1 construct: used as an enzyme source of the in vitro enzyme reaction assay of proton pump; from tissue; host or cells: hog gastric fundic mucosa (membrane vesicles, lyophilized)
Description: Inhibitory effects on proton pump (H^+/K^+-ATPase) activity, hog gastric vesicles. The class given is biochemical. Conditions: K^+ stimulated H^+/K^+-ATPase activity, hog gastric vesicle, Pi measured at 620 nm. As to the method: Preparation of Gastric Proton Pump Vesicles
The hog fundic regions containing parietal and peptic cells were scraped with slide-glass. The collected cells were suspended in 10 ml of 0.25M sucrose buffer and homogenized using a tight-fitting Teflon-glass homogenizer. The homogenate was centrifuged for 35 min at 8,000 rpm and the pellet was discarded. The supernatant was further centrifuged for 75 min at 25,000 rpm. The resulting pellets were re-suspended in the sucrose buffer (10 ml), and then the suspension was laid onto discontinuous density gradients consisting of 0.25M sucrose buffer and isolation medium containing 9% Ficoll (w/w). After being centrifuged for 3 hours and 15 minutes at 100,000×g, the material at the interface of sucrose buffer and Ficoll solution was collected and then centrifuged for 40 minutes at 100,000×g. The resulting pellets were re-suspended in 1 ml of 5 mM Hepes/Tris buffer (pH 6.1). This material was lyophilized and stored at −70° C. and used as an enzyme source of the in vitro enzyme reaction assay of proton pump.
1-2. Measurement of Inhibitory Effects on Proton Pump (H+/K+-ATPase) activity
The inhibitory effects of the compounds of the present invention against proton pump activity were evaluated in 96-well plate. In this assay, the K^+ specific H^+/K^+-ATPase activity was calculated based on the difference between the activity of H^+/K^+-ATPase activity with K^+ and without K^+ ion. In 96-well plate, 1% dimethylsulfoxide (DMSO) in buffer was added to negative and positive control groups and the diluted compounds of the present invention in buffer were added to test group. All assays were performed in 100 μl reaction volume at room temperature, and the hog gastric vesicle was kept in ice before use. At the beginning of the reaction, 10 μl of reaction buffer containing 1% DMSO was added to the negative and positive control groups and to each concentration of compounds in the test group. Then lyophilized vesicle in 5 mM Pipes/Tris buffer (pH 6.1) was pre-incubated in the presence of various concentrations of test compounds. After a 5 minute incubation, negative and positive buffers were respectively added to the previous reaction mixture. As the substrate, ATP was added to the reaction buffer, and incubated for 30 minutes at 37° C. Enzymatic activity was stopped by the addition of colorimetric reagent (2× malachite green, 1× ammonium molybdate, 1× polyvinyl alcohol, 2× H2O) and the amount of mono phosphate (Pi) in the reaction was measured at 620 nm using the micro plate reader (Genios Pro, TECAN). The difference between the Pi production with K^+ and without K^+ is taken as K^+ stimulated H^+/K^+-ATPase activity.
By IC50 is commonly meant the concentration at which inhibition is half-maximal. The low end stands for higher potency, the high end for lower potency. With “1-(3-methylbuten-2-yl)-7-(1,2,3,4-tetrahydroisoquinolin-2-yl)-2,3-dimethyl-1H-pyrrolo[3,2-b]pyridine hydrochloride [Example 16]”, the half-inhibitory concentration (IC50) is 0.19 µM.

`Cc1c(C)n(Cc2ccc(Cl)cc2)c2c(N3CCc4ccccc4C3)ccnc12` [Example 1, 1-(4-chlorobenzyl)-7-(1,2,3,4-tetrahydroisoquinolin-2-yl)-2,3-dimethyl-1H-pyrrolo[3,2-b]pyridine hydrochloride] showed an IC50 of 0.65 µM.

As to `Cc1c(C)n(Cc2ccc3ccccc3c2)c2c(N3CCc4ccccc4C3)ccnc12` [Example 2, 1-(2-naphthylmethyl)-7-(1,2,3,4-tetrahydroisoquinolin-2-yl)-2,3-dimethyl-1H-pyrrolo[3,2-b]pyridine hydrochloride], inhibition was half-maximal at 1.06 µM (IC50).

With `Cc1c(C)n(CC2OCCO2)c2c(N3CCc4ccccc4C3)ccnc12` [Example 3, 1-(1,3-dioxolan-2-ylmethyl)-7-(1,2,3,4-tetrahydroisoquinolin-2-yl)-2,3-dimethyl-1H-pyrrolo[3,2-b]pyridine hydrochloride], the 50% inhibitory concentration (IC50) was 0.64 µM.

`COCCn1c(C)c(C)c2nccc(N3CCc4ccccc4C3)c21` [Example 5, 1-(2-methoxyethyl)-7-(1,2,3,4-tetrahydroisoquinolin-2-yl)-2,3-dimethyl-1H-pyrrolo[3,2-b]pyridine hydrochloride] showed an IC50 of 0.32 µM.

Take `Cc1c(C)n(Cc2ccccc2)c2c(N3CCc4ccccc4C3)ccnc12` [Example 6, 1-benzyl-7-(1,2,3,4-tetrahydroisoquinolin-2-yl)-2,3-dimethyl-1H-pyrrolo[3,2-b]pyridine hydrochloride]: the IC50 stood at 0.2 µM.

On to `C=CCn1c(C)c(C)c2nccc(N3CCc4ccccc4C3)c21` [Example 7, 1-allyl-7-(1,2,3,4-tetrahydroisoquinolin-2-yl)-2,3-dimethyl-1H-pyrrolo[3,2-b]pyridine hydrochloride], for which half-maximal inhibition (IC50) was put at 0.22 µM.

Take `COc1cccc(Cn2c(C)c(C)c3nccc(N4CCc5ccccc5C4)c32)c1` [Example 8, 1-(3-methoxybenzyl)-7-(1,2,3,4-tetrahydroisoquinolin-2-yl)-2,3-dimethyl-1H-pyrrolo[3,2-b]pyridine hydrochloride]: half-maximal inhibition (IC50) was put at 0.44 µM.

`Cc1c(C)n(Cc2ccccc2F)c2c(N3CCc4ccccc4C3)ccnc12` [Example 9, 1-(2-fluorobenzyl)-7-(1,2,3,4-tetrahydroisoquinolin-2-yl)-2,3-dimethyl-1H-pyrrolo[3,2-b]pyridine hydrochloride] gave an IC50 of 0.33 µM.

For `COc1ccc(Cn2c(C)c(C)c3nccc(N4CCc5ccccc5C4)c32)cc1` [Example 10, 1-(4-methoxybenzyl)-7-(1,2,3,4-tetrahydroisoquinolin-2-yl)-2,3-dimethyl-1H-pyrrolo[3,2-b]pyridine hydrochloride], it took 0.69 µM to reach half-maximal inhibition (IC50).

`Cc1cccc(Cn2c(C)c(C)c3nccc(N4CCc5ccccc5C4)c32)c1` [Example 12, 1-(3-methylbenzyl)-7-(1,2,3,4-tetrahydroisoquinolin-2-yl)-2,3-dimethyl-1H-pyrrolo[3,2-b]pyridine hydrochloride] had a half-maximal inhibitory concentration (IC50) of 0.97 µM.

Compound `CCn1c(C)c(C)c2nccc(N3CCc4ccccc4C3)c21` [Example 13, 1-ethyl-7-(1,2,3,4-tetrahydroisoquinolin-2-yl)-2,3-dimethyl-1H-pyrrolo[3,2-b]pyridine hydrochloride] returned a half-maximal inhibitory concentration (IC50) of 0.8 µM.

The compound `Cc1c(C)n(CCC2OCCO2)c2c(N3CCc4ccccc4C3)ccnc12` [Example 14, 1-[2-(1,3-dioxolan-2-yl)ethyl]-7-(1,2,3,4-tetrahydroisoquinolin-2-yl)-2,3-dimethyl-1H-pyrrolo[3,2-b]pyridine hydrochloride] yielded an IC50 of 0.53 µM.

As to `Cc1c(C)n(Cc2ccc(Cl)cc2)c2c(OCc3ccc(F)cc3)ccnc12` [Example 33, 1-(4-chlorobenzyl)-7-(4-fluorobenzyloxy)-2,3-dimethyl-1H-pyrrolo[3,2-b]pyridine hydrochloride], the IC50 is 0.65 µM.

Compound `Cc1ccc(Cn2c(C)c(C)c3nccc(OCc4ccc(F)cc4)c32)cc1` [Example 34, 7-(4-fluorobenzyloxy)-2,3-dimethyl-1-(4-methylbenzyl)-1H-pyrrolo[3,2-b]pyridine hydrochloride] returned a concentration for half-maximal inhibition (IC50) of 0.23 µM.

As for `COC(=O)c1ccc(Cn2c(C)c(C)c3nccc(OCc4ccc(F)cc4)c32)cc1` [Example 35, 4-[7-(4-fluorobenzyloxy)-2,3-dimethyl-pyrrolo[3,2-b]pyridin-1-ylmethyl]-benzoic acid methyl ester hydrochloride], the midpoint of inhibition, the IC50, lay at 1.09 µM.

`Cc1c(C)n(Cc2ccc3ccccc3c2)c2c(OCc3ccc(F)cc3)ccnc12` [Example 37, 7-(4-fluorobenzyloxy)-2,3-dimethyl-1-(naphthalen-2-ylmethyl)-1H-pyrrolo[3,2-b]pyridine hydrochloride]: the midpoint of inhibition, the IC50, lay at 1.26 µM.

Turning to `C=COCCn1c(C)c(C)c2nccc(OCc3ccc(F)cc3)c21` [Example 38, 7-(4-fluorobenzyloxy)-2,3-dimethyl-1-(2-vinyloxyethyl)-1H-pyrrolo[3,2-b]pyridine hydrochloride], the midpoint of inhibition, the IC50, lay at 1.31 µM.

Compound `Cc1c(C)n(CC2OCCO2)c2c(OCc3ccc(F)cc3)ccnc12` [Example 39, 1-(1,3-dioxolan-2-ylmethyl)-7-(4-fluorobenzyloxy)-2,3-dimethyl-1H-pyrrolo[3,2-b]pyridine hydrochloride] showed a half-inhibitory concentration (IC50) of 0.22 µM.

`Cc1c(C)n(Cc2cccc(F)c2)c2c(OCc3ccc(F)cc3)ccnc12` [Example 40, 1-(3-fluorobenzyl)-7-(4-fluorobenzyloxy)-2,3-dimethyl-1H-pyrrolo[3,2-b]pyridine hydrochloride] displayed an IC50 of 0.19 µM.

`CC(C)=CCn1c(C)c(C)c2nccc(OCc3ccc(F)cc3)c21` [Example 56, hydrochloride]: inhibition was half-maximal at 0.57 µM (IC50).

`COC(=O)CCn1c(C)c(C)c2nccc(OCc3ccc(F)cc3)c21` [Example 57, 1-[2-(methoxycarbonyl)ethyl]-7-(4-fluorobenzyloxy)-2,3-dimethyl-1H-pyrrolo[3,2-b]pyridine hydrochloride]: the IC50 was 0.27 µM.

The compound `COc1ccc(Cn2c(C)c(C)c3nccc(OCc4ccc(F)cc4)c32)cc1` [Example 58, 7-(4-fluorobenzyloxy)-1-(4-methoxybenzyl)-2,3-dimethyl-1H-pyrrolo[3,2-b]pyridine hydrochloride] displayed an IC50 of 0.23 µM.

As for `COCn1c(C)c(C)c2nccc(OCc3ccc(Cl)cc3)c21` [Example 74, 7-(4-chlorobenzyloxy)-1-methoxymethyl-2,3-dimethyl-1H-pyrrolo[3,2-b]pyridine hydrochloride], the IC50 is 1.08 µM.

`Cc1c(C)n(Cc2ccc(C(C)(C)C)cc2)c2c(OCc3ccc(Cl)cc3)ccnc12` [Example 79, 1-(4-tert-butylbenzyl)-7-(4-chlorobenzyloxy)-2,3-dimethyl-1H-pyrrolo[3,2-b]pyridine hydrochloride] returned a concentration for half-maximal inhibition (IC50) of 1.59 µM.

For `Cc1c(C)n(Cc2ccncc2)c2c(OCc3ccc(Cl)cc3)ccnc12` [Example 80, 7-(4-chlorobenzyloxy)-2,3-dimethyl-1-(pyridin-4-ylmethyl)-1H-pyrrolo[3,2-b]pyridine hydrochloride], the concentration for half-maximal inhibition (IC50) stood at 2.87 µM.

As to `Cc1c(C)n(CC2CNC(=O)O2)c2c(OCc3ccc(Cl)cc3)ccnc12` (stereo not drawn) [Example 81, 5-[7-(4-chlorobenzyloxy)-2,3-dimethyl-pyrrolo[3,2-b]pyridin-1-ylmethyl]-oxazolidin-2-one hydrochloride], the 50% inhibitory concentration (IC50) is 1.25 µM.

Compound `Cc1ccc(C)c(Cn2c(C)c(C)c3nccc(OCc4ccc(Cl)cc4)c32)c1` [Example 82, 7-(4-chlorobenzyloxy)-1-(2,5-dimethylbenzyl)-2,3-dimethyl-1H-pyrrolo[3,2-b]pyridine hydrochloride] yielded an IC50 of 4.7 µM.

Consider `COC(=O)Cn1c(C)c(C)c2nccc(OCc3ccc(Cl)cc3)c21` [Example 83, [7-(4-chlorobenzyloxy)-2,3-dimethyl-pyrrolo[3,2-b]pyridin-1-yl]acetic acid methyl ester hydrochloride], for which the IC50 is 3.82 µM.

In the case of `CC(C)=CCn1c(C)c(C)c2nccc(OCc3ccc(Cl)cc3)c21` [Example 84, 7-(4-chlorobenzyloxy)-2,3-dimethyl-1-(3-methylbut-2-enyl)-1H-pyrrolo[3,2-b]pyridine hydrochloride], half-maximal inhibition (IC50) was put at 0.39 µM.
